Results: patent US20230203098A1, “HUMAN TRANSFERRIN RECEPTOR BINDING PEPTIDE” (priority 2020, published 2023)
Where a SMILES comes first, the peptide text is derived from it. Bridges are numbered along the chain shown (N, C = ends). [ ]: non-standard residue; d: D form. The star is where a group is joined. X2 = O=C(O)c1cc(C(=O)*)ccc1-c1c2ccc(=O)cc-2oc2cc(O)ccc12; PEG12 = NCCOCCOCCOCCOCCOCCOCCOCCOCCOCCOCCOCCOCCC(=O)O; NMePhe(3-Cl) = CN[C@@H](Cc1cccc(Cl)c1)C(=O)O; NMeW = CN[C@@H](Cc1c[nH]c2ccccc12)C(=O)O; Lys(N3) = [N-]=[N+]=NCCCC[C@H](N)C(=O)O; X4 = O=C1C=CC(=O)N1CC1CCC(C(=O)*)CC1; NMeY = CN[C@@H](Cc1ccc(O)cc1)C(=O)O

Target: transferrin receptor (hTfR) (Homo sapiens, UniProt P02786)
Assay: Intermolecular interaction evaluation test between transferrin receptor (hTfR) and peptide by surface plasmon resonance (SPR)
Format: binding
Conditions: SPR; peptides, linker-added peptides and FITC conjugates, Patent ID 203-230; read-out: KD
How it was run: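 hTfR captured on Ni-NTA chip then amine-coupled; peptides run single-cycle kinetics at 5–100 nM in 10 mM HEPES pH 8.0, 150 mM NaCl, 0.05% Tween 20, 0.1% BSA, 1.0% DMSO. KD from least-squares curve fitting of sensorgrams.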

Chain of transferrin receptor (hTfR) (P02786 whole entry): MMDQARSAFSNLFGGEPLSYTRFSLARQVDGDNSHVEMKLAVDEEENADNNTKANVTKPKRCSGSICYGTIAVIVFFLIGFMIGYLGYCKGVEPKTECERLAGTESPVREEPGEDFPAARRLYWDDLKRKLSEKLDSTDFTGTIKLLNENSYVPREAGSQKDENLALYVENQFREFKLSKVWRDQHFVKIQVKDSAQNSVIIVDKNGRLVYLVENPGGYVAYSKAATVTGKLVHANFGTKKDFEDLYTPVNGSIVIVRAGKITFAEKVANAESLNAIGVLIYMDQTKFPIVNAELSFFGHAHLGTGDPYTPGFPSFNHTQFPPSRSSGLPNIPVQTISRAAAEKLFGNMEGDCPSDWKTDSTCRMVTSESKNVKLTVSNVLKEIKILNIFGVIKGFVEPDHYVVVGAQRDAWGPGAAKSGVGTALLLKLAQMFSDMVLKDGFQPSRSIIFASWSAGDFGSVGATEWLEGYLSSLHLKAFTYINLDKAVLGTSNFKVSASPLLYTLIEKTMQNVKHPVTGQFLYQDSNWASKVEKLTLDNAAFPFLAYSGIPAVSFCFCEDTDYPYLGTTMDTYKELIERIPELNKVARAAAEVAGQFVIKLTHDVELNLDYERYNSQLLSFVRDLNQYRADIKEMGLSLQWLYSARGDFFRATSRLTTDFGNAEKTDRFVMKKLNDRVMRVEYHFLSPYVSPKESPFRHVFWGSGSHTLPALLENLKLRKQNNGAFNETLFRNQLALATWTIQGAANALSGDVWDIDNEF

Row | SMILES | Kd [nM]
1 | CC[C@H](C)[C@@H]1NC(=O)[C@H](Cc2ccc(O)cc2)NC(=O)[C@H](Cc2ccc(O)cc2)NC(=O)[C@H](CC(N)=O)NC(=O)[C@H](Cc2c[nH]c3ccccc23)NC(=O)[C@H](C(C)C)NC(=O)[C@H](Cc2ccccc2)NC(=O)[C@H](C(C)C)NC(=O)[C@H](C)NC(=O)CSC[C@@H](C(=O)NCCOCCOCCOCCOCCOCCOCCOCCOCCOCCOCCOCCOCCC(=O)N[C@@H](CCCCNC(=O)c2ccc(-c3c4ccc(=O)cc-4oc4cc(O)ccc34)c(C(=O)O)c2)C(N)=O)NC(=O)[C@H](CC(N)=O)NC(=O)[C@H](CCCNC(=N)N)NC(=O)[C@@H]2CCCN2C(=O)[C@H](C(C)C)NC1=O [compound 212] ({CH2CO}-AVFVWNYYIVPRNC[PEG12]K(X2)-NH2; thioether N-14) | 1 to 100
2 | CC[C@H](C)[C@@H]1NC(=O)[C@H](Cc2ccc(OC)cc2)NC(=O)[C@H](Cc2ccc(O)cc2)NC(=O)[C@H](CC(N)=O)NC(=O)[C@H](Cc2c[nH]c3ccccc23)N(C)C(=O)[C@H](C(C)C)NC(=O)[C@H](Cc2cccc(Cl)c2)N(C)C(=O)[C@H](C(C)C)NC(=O)[C@H](C)N(C)C(=O)CSC[C@@H](C(N)=O)NC(=O)[C@H](Cc2ccc(O)cc2)N(C)C(=O)[C@H](Cc2ccccc2)NC(=O)[C@H](CCCNC(=N)N)NC(=O)[C@H](CCCCN)NC(=O)[C@H]([C@@H](C)CC)NC1=O [compound 213] | 1 to 100
3 | CC[C@H](C)[C@@H]1NC(=O)[C@H](Cc2ccc(OC)cc2)NC(=O)[C@H](Cc2ccc(O)cc2)NC(=O)[C@H](CC(N)=O)NC(=O)[C@H](Cc2c[nH]c3ccccc23)N(C)C(=O)[C@H](C(C)C)NC(=O)[C@H](Cc2cccc(Cl)c2)N(C)C(=O)[C@H](C(C)C)NC(=O)[C@H](C)N(C)C(=O)CSC[C@@H](C(N)=O)NC(=O)[C@H](Cc2ccc(O)cc2)N(C)C(=O)[C@H](Cc2ccccc2)NC(=O)[C@H](CCCNC(=N)N)NC(=O)[C@H](CCCNC(=N)N)NC(=O)[C@H]([C@@H](C)CC)NC1=O [compound 214] | 1 to 100
4 | CC[C@H](C)[C@@H]1NC(=O)[C@H](Cc2ccc(OC)cc2)NC(=O)[C@H](Cc2ccc(O)cc2)NC(=O)[C@H](CC(N)=O)NC(=O)[C@H](Cc2c[nH]c3ccccc23)N(C)C(=O)[C@H](C(C)C)NC(=O)[C@H](Cc2cccc(Cl)c2)N(C)C(=O)[C@H](C(C)C)NC(=O)[C@H](C)N(C)C(=O)CSC[C@@H](C(N)=O)NC(=O)[C@H](Cc2ccc(O)cc2)N(C)C(=O)[C@H](Cc2ccccc2)NC(=O)[C@@H](CCCNC(=N)N)NC(=O)[C@H](CCCNC(=N)N)NC(=O)[C@H]([C@@H](C)CC)NC1=O [compound 215] | 1 to 100
5 | CC[C@H](C)[C@@H]1NC(=O)[C@H](Cc2ccc(OC)cc2)NC(=O)[C@H](Cc2ccc(O)cc2)NC(=O)[C@H](CC(N)=O)NC(=O)[C@H](Cc2c[nH]c3ccccc23)N(C)C(=O)[C@H](C(C)C)NC(=O)[C@H](Cc2cccc(Cl)c2)N(C)C(=O)[C@H](C(C)C)NC(=O)[C@H](C)N(C)C(=O)CSC[C@@H](C(N)=O)NC(=O)[C@H](Cc2ccc(O)cc2)N(C)C(=O)[C@H](Cc2ccccc2)NC(=O)[C@@H](C)NC(=O)[C@H](CCCNC(=N)N)NC(=O)[C@H]([C@@H](C)CC)NC1=O [compound 216] | > 1000
6 | CC[C@H](C)[C@@H]1NC(=O)[C@H](Cc2ccc(OC)cc2)NC(=O)[C@H](Cc2ccc(O)cc2)NC(=O)[C@H](CC(N)=O)NC(=O)[C@H](Cc2c[nH]c3ccccc23)N(C)C(=O)[C@H](C(C)C)NC(=O)[C@H](Cc2cccc(Cl)c2)N(C)C(=O)[C@H](C(C)C)NC(=O)[C@H](CCC(=O)O)NC(=O)CSC[C@@H](C(N)=O)NC(=O)[C@H](Cc2ccc(O)cc2)N(C)C(=O)[C@H](Cc2ccccc2)NC(=O)[C@H](CCCNC(=N)N)NC(=O)[C@H](CCCNC(=N)N)NC(=O)[C@H]([C@@H](C)CC)NC1=O [compound 217] | 1 to 100
7 | CC[C@H](C)[C@@H]1NC(=O)[C@H](Cc2ccc(O)cc2)NC(=O)[C@H](Cc2ccc(O)cc2)NC(=O)[C@H](CC(N)=O)NC(=O)[C@H](Cc2c[nH]c3ccccc23)NC(=O)[C@H](C(C)C)NC(=O)[C@H](Cc2ccccc2)NC(=O)[C@H](C(C)C)NC(=O)[C@H](CCC(=O)O)NC(=O)CSC[C@@H](C(=O)NCCOCCOCCOCCOCCOCCOCCOCCOCCOCCOCCOCCOCCC(=O)NN)NC(=O)[C@H](Cc2ccc(O)cc2)N(C)C(=O)[C@H](Cc2ccc(O)cc2)NC(=O)[C@H](CCCNC(=N)N)NC(=O)[C@H](CCCNC(=N)N)NC(=O)[C@H]([C@@H](C)CC)NC1=O [compound 218] | 1 to 100
8 | CC[C@H](C)[C@@H]1NC(=O)[C@H](Cc2ccc(O)cc2)NC(=O)[C@H](Cc2ccc(O)cc2)NC(=O)[C@H](CC(N)=O)NC(=O)[C@H](Cc2c[nH]c3ccccc23)NC(=O)[C@H](C(C)C)NC(=O)[C@H](Cc2ccccc2)NC(=O)[C@H](CCC(=O)O)NC(=O)[C@H](C)NC(=O)CSC[C@@H](C(N)=O)NC(=O)[C@H](Cc2ccc(O)cc2)N(C)C(=O)[C@H](Cc2ccc(O)cc2)NC(=O)[C@H](CCCNC(=N)N)NC(=O)[C@H](CCCNC(=N)N)NC(=O)[C@H]([C@@H](C)CC)NC1=O [compound 219] | 1 to 100
9 | CC[C@H](C)[C@@H]1NC(=O)[C@H](Cc2ccc(OC)cc2)NC(=O)[C@H](Cc2ccc(O)cc2)NC(=O)[C@H](CC(N)=O)NC(=O)[C@H](Cc2c[nH]c3ccccc23)NC(=O)[C@H](C(C)C)NC(=O)[C@H](Cc2cccc(Cl)c2)N(C)C(=O)[C@H](CCC(=O)O)NC(=O)[C@H](C)NC(=O)CSC[C@@H](C(=O)NCC(=O)NCC(=O)N[C@@H](CO)C(=O)NCC(=O)N[C@@H](CO)C(=O)NCC(=O)N[C@@H](CCCCNC(=O)C2CCC(CN3C(=O)C=CC3=O)CC2)C(N)=O)NC(=O)[C@H](Cc2ccc(O)cc2)N(C)C(=O)[C@H](Cc2ccccc2)NC(=O)[C@@H](CCCNC(=N)N)NC(=O)[C@H](CCCNC(=N)N)NC(=O)[C@H]([C@@H](C)CC)NC1=O (stereo partly drawn) [compound 222] ({CH2CO}-AE[NMePhe(3-Cl)]VWNYY(Me)IIR[dR]F[NMeY]CGGSGSGK(X4)-NH2; thioether N-15) | 1 to 100
10 | CC[C@H](C)[C@@H]1NC(=O)[C@H](Cc2ccc(OC)cc2)NC(=O)[C@H](Cc2ccc(O)cc2)NC(=O)[C@H](CC(N)=O)NC(=O)[C@H](Cc2c[nH]c3ccccc23)N(C)C(=O)[C@H](C(C)C)NC(=O)[C@H](Cc2cccc(Cl)c2)N(C)C(=O)[C@H](CCC(=O)O)NC(=O)[C@H](C)NC(=O)CSC[C@@H](C(=O)NCC(=O)NCC(=O)NCC(=O)NCC(=O)N[C@@H](CO)C(=O)N[C@@H](CO)C(=O)N[C@@H](CS)C(N)=O)NC(=O)[C@H](Cc2ccc(O)cc2)N(C)C(=O)[C@H](Cc2ccccc2)NC(=O)[C@@H](CCCNC(=N)N)NC(=O)[C@H](CCCNC(=N)N)NC(=O)[C@H](CCC(=O)O)NC1=O [compound 223] | 1 to 100
11 | CC[C@H](C)[C@@H]1NC(=O)[C@H](Cc2ccc(OC)cc2)NC(=O)[C@H](Cc2ccc(O)cc2)NC(=O)[C@H](CC(N)=O)NC(=O)[C@H](Cc2c[nH]c3ccccc23)N(C)C(=O)[C@H](C(C)C)NC(=O)[C@H](Cc2cccc(Cl)c2)N(C)C(=O)[C@H](CCC(=O)O)NC(=O)[C@H](C)NC(=O)CSC[C@@H](C(=O)NCC(=O)N[C@@H](CCCCN=[N+]=[N-])C(N)=O)NC(=O)[C@H](Cc2ccc(O)cc2)N(C)C(=O)[C@H](Cc2ccccc2)NC(=O)[C@@H](CCCNC(=N)N)NC(=O)[C@H](CCCNC(=N)N)NC(=O)[C@H](CCC(=O)O)NC1=O [compound 224] ({CH2CO}-AE[NMePhe(3-Cl)]V[NMeW]NYY(Me)IER[dR]F[NMeY]CG[Lys(N3)]-NH2; thioether N-15) | 1 to 100
12 | CC[C@H](C)[C@@H]1NC(=O)[C@H](Cc2ccc(OC)cc2)NC(=O)[C@H](Cc2ccc(O)cc2)NC(=O)[C@H](CC(N)=O)NC(=O)[C@H](Cc2c[nH]c3ccccc23)N(C)C(=O)[C@H](C(C)C)NC(=O)[C@H](Cc2cccc(Cl)c2)N(C)C(=O)[C@H](CCC(=O)O)NC(=O)[C@H](C)NC(=O)CSC[C@@H](C(N)=O)NC(=O)[C@H](Cc2ccc(O)cc2)N(C)C(=O)[C@H](Cc2ccccc2)NC(=O)[C@H](CCCCN)NC(=O)[C@H](C)NC(=O)[C@H]([C@@H](C)CC)NC1=O [compound 225] ({CH2CO}-AE[NMePhe(3-Cl)]V[NMeW]NYY(Me)IIAKF[NMeY]C-NH2; thioether N-15) | 1 to 100
13 | CC[C@H](C)[C@@H]1NC(=O)[C@H](Cc2ccc(OC)cc2)NC(=O)[C@H](Cc2ccc(O)cc2)NC(=O)[C@H](CC(N)=O)NC(=O)[C@H](Cc2c[nH]c3ccccc23)N(C)C(=O)[C@H](C(C)C)NC(=O)[C@H](Cc2cccc(Cl)c2)N(C)C(=O)[C@H](CCC(=O)O)NC(=O)[C@H](C)NC(=O)CSC[C@@H](C(N)=O)NC(=O)[C@H](Cc2ccc(O)cc2)N(C)C(=O)[C@H](Cc2ccccc2)NC(=O)[C@@H](CCCNC(=N)N)NC(=O)[C@H](C)NC(=O)[C@H]([C@@H](C)CC)NC1=O [compound 226] ({CH2CO}-AE[NMePhe(3-Cl)]V[NMeW]NYY(Me)IIA[dR]F[NMeY]C-NH2; thioether N-15) | 100 to 1000
14 | CC[C@H](C)[C@@H]1NC(=O)[C@H](Cc2ccc(OC)cc2)NC(=O)[C@H](Cc2ccc(O)cc2)NC(=O)[C@H](CC(N)=O)NC(=O)[C@H](Cc2c[nH]c3ccccc23)N(C)C(=O)[C@H](C(C)C)NC(=O)[C@H](Cc2cccc(Cl)c2)N(C)C(=O)[C@H](CCC(=O)O)NC(=O)[C@H](C)NC(=O)CSC[C@@H](C(N)=O)NC(=O)[C@H](CCCNC(=N)N)NC(=O)[C@H](Cc2ccccc2)NC(=O)[C@H](CCCNC(=N)N)NC(=O)[C@H](CC(=O)O)NC(=O)[C@H]([C@@H](C)CC)NC1=O [compound 227] ({CH2CO}-AE[NMePhe(3-Cl)]V[NMeW]NYY(Me)IIDRFRC-NH2; thioether N-15) | 1 to 100
15 | CC[C@H](C)[C@@H]1NC(=O)[C@H](Cc2ccc(OC)cc2)NC(=O)[C@H](Cc2ccc(O)cc2)NC(=O)[C@H](CC(N)=O)NC(=O)[C@H](Cc2c[nH]c3ccccc23)N(C)C(=O)[C@H](C(C)C)NC(=O)[C@H](Cc2cccc(Cl)c2)N(C)C(=O)[C@H](CCC(=O)O)NC(=O)[C@H](C)NC(=O)CSC[C@@H](C(N)=O)NC(=O)[C@H](Cc2ccc(O)cc2)N(C)C(=O)[C@H](Cc2ccccc2)NC(=O)[C@@H](CCCNC(=N)N)NC(=O)[C@H](CCCCN)NC(=O)[C@H]([C@@H](C)CC)NC1=O [compound 228] ({CH2CO}-AE[NMePhe(3-Cl)]V[NMeW]NYY(Me)IIK[dR]F[NMeY]C-NH2; thioether N-15) | 1 to 100
